Consider two compounds from US20100150948A1, “MATERIALS AND METHODS FOR IMPROVED IMMUNOGLYCOPROTEINS” (TRUBION PHARMACEUTICALS, INC., priority 2006, published 2010).

Data set [1] relates to Ramos B cells. The experiment in a line: CDC activity, propidium iodide flow cytometry with human serum. It counts as cell-based. As to conditions: TRU-016 from CHO cells cultured with 200 μM DMJ, 10 μM kifenunsine or 200 μM castanospermine. The procedure:
To determine the CDC activity of TRU-016 purified protein produced according to Example 2, Ramos B cells were suspended in Iscoves (Gibco/Invitrogen, Grand Island, N.Y.) at 5×10^5 cells/well in 75 μl. TRU-016 (75 μl) were added to the cells at twice the concentrations indicated. Binding reactions were allowed to proceed for 45 minutes prior to centrifugation and washing in serum-free Iscoves. Cells were resuspended in Iscoves with human serum (containing complement) at various concentrations. The cells were incubated 60 minutes at 37° C. Cells were washed by centrifugation and resuspended in staining media with 0.5 μg/ml propidium iodide. Samples were incubated 15 minutes at room temperature in the dark prior to analysis by flow cytometry using a FACsCalibur and CellQuest software (Becton Dickinson).
In general terms: Flow cytometry measures light scatter and fluorescence of single cells or particles in a stream.

Details of data set [2]: species or system BALB/c mice. As to conditions: mouse, in vivo, iv, 200 ug. The procedure: Female BALB/c mice were injected i.v. with 200 μg of TRU-016 test protein (TRU-016 produced by untreated CHO cells or by CHO cells treated with 200 μM DMJ, […] or 200 μM castanospermine) at time 0. Serum samples were collected (3 mice per time point) at 15 min, 2, 6, 24, 48, 72, 96, and 192 hours post injection. The serum concentration of each TRU-016 test sample was determined in a FACS-based binding assay using the CD37+ Ramos human cell line. CD37+ Ramos cells (5×10^5 cells/well) were incubated in 96 well flat bottom plates along with the serum sample to be tested. Spiked serum samples were used for the standard curves. Cells were incubated at 4° C. for an hour and washed before addition of the detection antibody. Binding of TRU-016 test protein to CD37+ Ramos cells was detected using a fluorescein-conjugated goat anti-human IgG Fcγ fragment-specific antibody. Standard curves were used to construct a binding curve as a function of antigen concentration. Briefly, standard curves consisted of various known concentrations of the TRU-016 test protein spiked into normal mouse serum diluted 1:20 in FACS buffer. The standard curves were run in duplicate on each plate. Mean fluorescence intensities (MFI) from the FACS analysis were imported into Softmax Pro software and were used to calculate serum concentrations of the TRU-016 test protein.

For data set [3], the system named is CHO cells expressing TRU-016. The experiment in a line: Culturing CHO host cells with carbohydrate modifier: cell growth and viability. It counts as cell-based, Chinese hamster. The conditions noted are these: castanospermine up to 1000 μM, all time periods up to 144 hours. The procedure:
For shake flask runs, log phase host cells were seeded in shake flasks at 100,000 cells/ml with carbohydrate modifier at the concentration to be tested, and optionally with methotrexate (MTX) @ 50 nM
Cells were seeded at 3×10E6/mL in 1350 mL of Ex-Cell 302 culture media (SATC Biosciences; with added non-essential amino acids, pyrucate, L-glutamine, pen/strep, HT Supplement and insulin, all from Invitrogen) at t=0 and brought to 5 L total volume at T>=72 hours. The cells were incubated at 37° C. and 5% carbon dioxide and monitored for growth and viability daily starting at day 6-7. Supernatants were typically harvested at day 10-12 when cell viability dropped below 60%.
Na-Azide was added to 0.02%, cells were removed by centrifugation and supernatant was filter sterilized through a 0.22 uM filter. Some assays described in other examples herein were performed on the supernatants as indicated, while other assays were performed on material that underwent further protein A purification. […] Cells were incubated at 37° C. and 5% carbon dioxide and monitored daily for growth and viability. […]

Data set [4] relates to CD16 (low affinity allele). The experiment in a line: Binding to soluble FcγR-MIg fusion on WIL2-S cells, flow cytometry. As to conditions: 0, 2, 5, 10, 30 or 100 μg/mL castanospermine in culture media. The procedure: The immunoglycoproteins produced according to Example 2 were assayed in vitro for binding to soluble Ig-fusion versions of Fcγ receptors, in which the extracellular domain of a receptor is fused to murine IgG2a Fc.
The soluble Fey receptor materials were generated by fusing the extracellular domain of Fcγ Receptors I (Genbank Acc. No. BC032634), IIa (Genbank Acc. No. NM_021642), IIb (Genbank Acc. No. BC031992), and III-V158 (high affinity allele) (Genbank Acc. No. X07934) and III-F158 (low affinity allele), respectively, to a murine IgG2a Fc with a Pro to Ser mutation at residue 238 (MIgG2aP238S). For both forms of Fcγ RIII (CD16), an HE4 leader was cloned onto CD16 amino acids 1-178 and then fused to MIgG2aP238S.
The assays were carried out as follows. […] The cells were then incubated with the desired FcγR-MIg fusion in the same diluent at a concentration of 1 μg/ml on ice for 45 minutes.
The complexes (WIL2-S cells/SMIP/FcγR-MIg) were then incubated with PE conjugated AffiniPure F(Ab')2 Goat Anti-Mouse IgG [Jackson Immunoresearch] (a mouse Fc-specific antibody with minimal cross reactivity with human Fc) at a 1:100 dilution. The cells were analyzed by one-color flow cytometry on a FACsCalibur using CellQuest software (Becton Dickinson).

Regarding “TRU-016: recombinant single chain protein (SMIP) that binds CD37; G28-1 binding domain, modified hinge, human IgG1 CH2 and CH3; SEQ ID NO: 2”, the “CDC compared with protein produced by untreated CHO cells” value in data set [1] is given as “similar”. Further, in data set [2], the “effect of carbohydrate modifier on half-life or other pharmacokinetic parameters” value is on record as “no significant effect”.
For the compound `O[C@H]1[C@H](O)[C@@H](O)CN2CC[C@H](O)[C@H]12` [castanospermine], in data set [3], the cell counts result was “did not affect” and the percent cell viability entry is “did not affect”. Also, the “CD16 binding (geometric mean fluorescence intensity) of TRU-015 purified protein produced by CHO cells cultured with the modifier” value in data set [4] was “dose-dependent increase”.
